{"source": "PubChem BioAssay AID1259407", "about": "(Chemical Carcinogenesis Research Information System (CCRIS), 2018)", "system": "CCRIS mutagenicity, Ames/micronucleus/aberration tests", "assay": "CCRIS mutagenicity studies", "key": {"[1]": {"conditions": "Test System: AMES SALMONELLA TYPHIMURIUM, Strain/Indicator: TA98, Metabolic Activation: NONE, Method: STANDARD PLATE"}, "[2]": {"conditions": "Test System: AMES SALMONELLA TYPHIMURIUM, Strain/Indicator: TA100, Metabolic Activation: NONE, Method: STANDARD PLATE"}, "[3]": {"conditions": "Test System: AMES SALMONELLA TYPHIMURIUM, Strain/Indicator: TA102, Metabolic Activation: NONE, Method: PREINCUBATION"}, "[4]": {"conditions": "Test System: AMES SALMONELLA TYPHIMURIUM, Strain/Indicator: TA100, Metabolic Activation: NONE, Method: PREINCUBATION"}}, "note": "Active and inactive are the calls of the source. The rule behind the calls is not given here.", "data": [{"smiles": "Nc1ccc2ccccc2c1N=Nc1ccccc1", "values": [{"measurement": "mutagenic call", "setting": "Test System: AMES SALMONELLA TYPHIMURIUM, Strain/Indicator: TA98, Metabolic Activation: HAMSTER, LIVER, S-9, AROCLOR 1254 (2.5-20%), Method: PREINCUBATION", "value": "inactive; negative"}, {"measurement": "mutagenic call", "setting": "Test System: AMES SALMONELLA TYPHIMURIUM, Strain/Indicator: TA98, Metabolic Activation: HAMSTER, LIVER, S-9, AROCLOR 1254, Method: STANDARD PLATE", "value": "inactive; negative"}, {"measurement": "mutagenic call", "setting": "[1]", "value": "inactive; negative"}, {"measurement": "mutagenic call", "setting": "Test System: AMES SALMONELLA TYPHIMURIUM, Strain/Indicator: TA98, Metabolic Activation: RAT, LIVER, S-9, AROCLOR 1254, Method: STANDARD PLATE", "value": "inactive; negative"}, {"measurement": "mutagenic call", "setting": "Test System: AMES SALMONELLA TYPHIMURIUM, Strain/Indicator: TA100, Metabolic Activation: HAMSTER, LIVER, S-9, AROCLOR 1254 (2.5-20%), Method: PREINCUBATION", "value": "inactive; negative"}, {"measurement": "mutagenic call", "setting": "Test System: AMES SALMONELLA TYPHIMURIUM, Strain/Indicator: TA100, Metabolic Activation: HAMSTER, LIVER, S-9, AROCLOR 1254, Method: STANDARD PLATE", "value": "inactive; negative"}, {"measurement": "mutagenic call", "setting": "[2]", "value": "inactive; negative"}, {"measurement": "mutagenic call", "setting": "Test System: AMES SALMONELLA TYPHIMURIUM, Strain/Indicator: TA100, Metabolic Activation: RAT, LIVER, S-9, AROCLOR 1254, Method: STANDARD PLATE", "value": "inactive; negative"}, {"measurement": "mutagenic call", "setting": "Test System: AMES SALMONELLA TYPHIMURIUM, Strain/Indicator: TA102, Metabolic Activation: HAMSTER, LIVER, S-9, AROCLOR 1254 (10%), Method: PREINCUBATION", "value": "inactive; negative"}, {"measurement": "mutagenic call", "setting": "[3]", "value": "inactive; negative"}, {"measurement": "mutagenic call", "setting": "Test System: AMES SALMONELLA TYPHIMURIUM, Strain/Indicator: TA102, Metabolic Activation: RAT, LIVER, S-9, AROCLOR 1254 (10%), Method: PREINCUBATION", "value": "inactive; negative"}, {"measurement": "mutagenic call", "setting": "Test System: AMES SALMONELLA TYPHIMURIUM, Strain/Indicator: TA1535, Metabolic Activation: HAMSTER, LIVER, S-9, AROCLOR 1254, Method: STANDARD PLATE", "value": "inactive; negative"}, {"measurement": "mutagenic call", "setting": "Test System: AMES SALMONELLA TYPHIMURIUM, Strain/Indicator: TA1535, Metabolic Activation: NONE, Method: STANDARD PLATE", "value": "inactive; negative"}, {"measurement": "mutagenic call", "setting": "Test System: AMES SALMONELLA TYPHIMURIUM, Strain/Indicator: TA1535, Metabolic Activation: RAT, LIVER, S-9, AROCLOR 1254, Method: STANDARD PLATE", "value": "inactive; negative"}, {"measurement": "mutagenic call", "setting": "Test System: AMES SALMONELLA TYPHIMURIUM, Strain/Indicator: TA1537, Metabolic Activation: HAMSTER, LIVER, S-9, AROCLOR 1254, Method: STANDARD PLATE", "value": "inactive; negative"}, {"measurement": "mutagenic call", "setting": "Test System: AMES SALMONELLA TYPHIMURIUM, Strain/Indicator: TA1537, Metabolic Activation: NONE, Method: STANDARD PLATE", "value": "inactive; negative"}, {"measurement": "mutagenic call", "setting": "Test System: AMES SALMONELLA TYPHIMURIUM, Strain/Indicator: TA1537, Metabolic Activation: RAT, LIVER, S-9, AROCLOR 1254, Method: STANDARD PLATE", "value": "inactive; negative"}, {"measurement": "mutagenic call", "setting": "Test System: AMES SALMONELLA TYPHIMURIUM, Strain/Indicator: TA1538, Metabolic Activation: HAMSTER, LIVER, S-9, AROCLOR 1254, Method: STANDARD PLATE", "value": "inactive; negative"}, {"measurement": "mutagenic call", "setting": "Test System: AMES SALMONELLA TYPHIMURIUM, Strain/Indicator: TA1538, Metabolic Activation: NONE, Method: STANDARD PLATE", "value": "inactive; negative"}, {"measurement": "mutagenic call", "setting": "Test System: AMES SALMONELLA TYPHIMURIUM, Strain/Indicator: TA1538, Metabolic Activation: RAT, LIVER, S-9, AROCLOR 1254, Method: STANDARD PLATE", "value": "inactive; negative"}, {"measurement": "mutagenic call", "setting": "Test System: MOUSE LYMPHOMA, Strain/Indicator: L5178Y (TK+/TK-), Metabolic Activation: NONE, Method: SUSPENSION/PLATE", "value": "active; positive. reevaluation of results: equivocal"}]}, {"smiles": "N=c1ccn2c(n1)O[C@H]1[C@H](O)[C@@H](CO)O[C@H]12", "values": [{"measurement": "mutagenic call", "setting": "Test System: AMES SALMONELLA TYPHIMURIUM, Strain/Indicator: TA98, Metabolic Activation: S-9, Method: STANDARD PLATE", "value": "inactive; negative"}, {"measurement": "mutagenic call", "setting": "Test System: AMES SALMONELLA TYPHIMURIUM, Strain/Indicator: TA100, Metabolic Activation: S-9, Method: STANDARD PLATE", "value": "inactive; negative"}, {"measurement": "mutagenic call", "setting": "Test System: AMES SALMONELLA TYPHIMURIUM, Strain/Indicator: TA1537, Metabolic Activation: S-9, Method: STANDARD PLATE", "value": "inactive; negative"}, {"measurement": "mutagenic call", "setting": "Test System: E. COLI, Strain/Indicator: WP2 (HCR), Metabolic Activation: S-9, Method: STANDARD PLATE", "value": "inactive; negative"}]}, {"smiles": "O=S(O)CO", "values": [{"measurement": "mutagenic call", "setting": "Test System: AMES SALMONELLA TYPHIMURIUM, Strain/Indicator: TA98, Metabolic Activation: NONE, Method: PREINCUBATION", "value": "inactive; negative"}, {"measurement": "mutagenic call", "setting": "Test System: AMES SALMONELLA TYPHIMURIUM, Strain/Indicator: TA98, Metabolic Activation: RAT LIVER S-9, PHENOBARBITAL AND BETA-NAPHTHOFLAVONE, Method: PREINCUBATION", "value": "inactive; negative"}, {"measurement": "mutagenic call", "setting": "[4]", "value": "inactive; negative"}, {"measurement": "mutagenic call", "setting": "Test System: AMES SALMONELLA TYPHIMURIUM, Strain/Indicator: TA100, Metabolic Activation: RAT LIVER S-9, PHENOBARBITAL AND BETA-NAPHTHOFLAVONE, Method: PREINCUBATION", "value": "inactive; negative"}, {"measurement": "mutagenic call", "setting": "[3]", "value": "inactive; negative"}, {"measurement": "mutagenic call", "setting": "Test System: AMES SALMONELLA TYPHIMURIUM, Strain/Indicator: TA102, Metabolic Activation: RAT LIVER S-9, PHENOBARBITAL AND BETA-NAPHTHOFLAVONE, Method: PREINCUBATION", "value": "inactive; negative"}, {"measurement": "mutagenic call", "setting": "Test System: AMES SALMONELLA TYPHIMURIUM, Strain/Indicator: TA104, Metabolic Activation: NONE, Method: PREINCUBATION", "value": "inactive; negative"}, {"measurement": "mutagenic call", "setting": "Test System: AMES SALMONELLA TYPHIMURIUM, Strain/Indicator: TA104, Metabolic Activation: RAT LIVER S-9, PHENOBARBITAL AND BETA-NAPHTHOFLAVONE, Method: PREINCUBATION", "value": "inactive; negative"}, {"measurement": "mutagenic call", "setting": "Test System: AMES SALMONELLA TYPHIMURIUM, Strain/Indicator: TA1535, Metabolic Activation: NONE, Method: PREINCUBATION", "value": "inactive; negative"}, {"measurement": "mutagenic call", "setting": "Test System: AMES SALMONELLA TYPHIMURIUM, Strain/Indicator: TA1535, Metabolic Activation: RAT LIVER S-9, PHENOBARBITAL AND BETA-NAPHTHOFLAVONE, Method: PREINCUBATION", "value": "inactive; negative"}, {"measurement": "mutagenic call", "setting": "Test System: AMES SALMONELLA TYPHIMURIUM, Strain/Indicator: TA1537, Metabolic Activation: NONE, Method: PREINCUBATION", "value": "inactive; negative"}, {"measurement": "mutagenic call", "setting": "Test System: AMES SALMONELLA TYPHIMURIUM, Strain/Indicator: TA1537, Metabolic Activation: RAT LIVER S-9, PHENOBARBITAL AND BETA-NAPHTHOFLAVONE, Method: PREINCUBATION", "value": "inactive; negative"}, {"measurement": "mutagenic call", "setting": "Test System: E.COLI, Strain/Indicator: WP2UVRA/PKM101, Metabolic Activation: NONE, Method: PREINCUBATION", "value": "inactive; negative"}, {"measurement": "mutagenic call", "setting": "Test System: E.COLI, Strain/Indicator: WP2UVRA/PKM101, Metabolic Activation: RAT LIVER S-9, PHENOBARBITAL AND BETA-NAPHTHOFLAVONE, Method: PREINCUBATION", "value": "inactive; negative"}, {"measurement": "mutagenic call", "setting": "Test System: E.COLI, Strain/Indicator: WP2UVRA, Metabolic Activation: NONE, Method: PREINCUBATION", "value": "inactive; negative"}, {"measurement": "mutagenic call", "setting": "Test System: E.COLI, Strain/Indicator: WP2UVRA, Metabolic Activation: RAT LIVER S-9, PHENOBARBITAL AND BETA-NAPHTHOFLAVONE, Method: PREINCUBATION", "value": "inactive; negative"}]}, {"smiles": "CC(=O)N[C@@H](CS/C(Cl)=C(\\Cl)C(Cl)=C(Cl)Cl)C(=O)O", "values": [{"measurement": "mutagenic call", "setting": "[4]", "value": "inactive; negative"}, {"measurement": "mutagenic call", "setting": "Test System: AMES SALMONELLA TYPHIMURIUM, Strain/Indicator: TA100, Metabolic Activation: RAT, KIDNEY, CYTOSOL, Method: PREINCUBATION", "value": "active; positive"}, {"measurement": "mutagenic call", "setting": "Test System: AMES SALMONELLA TYPHIMURIUM, Strain/Indicator: TA100, Metabolic Activation: RAT, LIVER, S-9, AROCLOR 1254 (10%), Method: PREINCUBATION", "value": "active; positive"}]}, {"smiles": "CS(C)=O.[Cl-].[Cl-].[Pt+2].c1ccncc1", "values": [{"measurement": "mutagenic call", "setting": "Test System: AMES SALMONELLA TYPHIMURIUM, Strain/Indicator: TA92, Metabolic Activation: NONE, Method: STANDARD PLATE", "value": "inactive; negative"}, {"measurement": "mutagenic call", "setting": "[1]", "value": "inactive; negative"}, {"measurement": "mutagenic call", "setting": "[2]", "value": "inactive; negative"}, {"measurement": "mutagenic call", "setting": "Test System: AMES SALMONELLA TYPHIMURIUM, Strain/Indicator: TA2410, Metabolic Activation: NONE, Method: STANDARD PLATE", "value": "inactive; negative"}]}]}
